# According to patent publication US10894784B2, “Heteroarylbenzimidazole compounds” (BAYER PHARMA AKTIENGESELLSCHAFT, priority 2015, dated 2021):
# Target: TBK1 (Homo sapiens (Human), UniProt Q9UHD2)
# Assay: TBK1 low ATP kinase assay (in vitro assay 1)
# Format: biochemical
# Conditions: in vitro assay 1, read-out: TBK1 low ATP kinase assay IC50
# TBK1, sequence (Q9UHD2 whole entry): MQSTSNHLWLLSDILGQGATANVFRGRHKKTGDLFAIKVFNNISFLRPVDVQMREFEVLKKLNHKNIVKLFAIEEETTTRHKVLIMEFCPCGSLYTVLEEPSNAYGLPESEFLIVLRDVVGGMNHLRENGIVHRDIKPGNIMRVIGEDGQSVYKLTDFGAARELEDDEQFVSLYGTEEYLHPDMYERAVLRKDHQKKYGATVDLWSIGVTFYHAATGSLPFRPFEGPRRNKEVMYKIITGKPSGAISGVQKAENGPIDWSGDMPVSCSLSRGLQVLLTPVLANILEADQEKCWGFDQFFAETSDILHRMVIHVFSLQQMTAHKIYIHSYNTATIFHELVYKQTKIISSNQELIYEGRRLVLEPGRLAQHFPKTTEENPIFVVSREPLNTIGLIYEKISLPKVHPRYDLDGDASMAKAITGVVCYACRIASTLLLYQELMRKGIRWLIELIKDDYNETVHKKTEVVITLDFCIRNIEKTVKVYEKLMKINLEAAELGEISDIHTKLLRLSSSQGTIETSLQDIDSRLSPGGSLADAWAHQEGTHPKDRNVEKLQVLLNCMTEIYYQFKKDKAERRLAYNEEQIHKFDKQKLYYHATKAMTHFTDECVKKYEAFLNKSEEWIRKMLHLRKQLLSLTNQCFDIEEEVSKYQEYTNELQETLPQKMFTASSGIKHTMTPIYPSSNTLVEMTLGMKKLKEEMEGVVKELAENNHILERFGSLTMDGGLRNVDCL
row,Compound,IC50 [nM]
1,"COc1cc(-c2ccc3nc(Nc4cc(CN5CCN(C(=O)CC(F)(F)F)CC5)ccn4)[nH]c3c2)c(F)cn1 [Example 03.02, 3,3,3-trifluoro-1-{4-[(2-{[6-(5-fluoro-2-methoxypyridin-4-yl)-1H-benzimidazol-2-yl]amino}pyridin-4-yl)methyl]piperazin-1-yl}propan-1-one]",232
2,"COc1cc(-c2ccc3nc(Nc4cc(CN5CCN(C(=O)C6CCC6)CC5)ccn4)[nH]c3c2)c(F)cn1 [Example 03.03, cyclobutyl{4-[(2-{[6-(5-fluoro-2-methoxypyridin-4-yl)-1H-benzimidazol-2-yl]amino}pyridin-4-yl)methyl]piperazin-1-yl}methanone]",279
3,"COc1cc(-c2ccc3nc(Nc4cc(CN5CCN(C(=O)CC6CC6)CC5)ccn4)[nH]c3c2)c(F)cn1 [Example 03.04, 2-cyclopropyl-1-{4-[(2-{[6-(5-fluoro-2-methoxypyridin-4-yl)-1H-benzimidazol-2-yl]amino}pyridin-4-yl)methyl]piperazin-1-yl}ethanone]",288
4,"COc1cnccc1-c1ccc2nc(Nc3cc(CN4CCN(C(=O)OC(C)(C)C)CC4)ccn3)[nH]c2c1 [Example 04.01, tert-butyl 4-[(2-{[6-(3-methoxypyridin-4-yl)-1H-benzimidazol-2-yl]amino}pyridin-4-yl)methyl]piperazine-1-carboxylate]",28.5
5,"COc1cnccc1-c1ccc2nc(Nc3cc(CN4CCN(C(=O)CC(F)(F)F)CC4)ccn3)[nH]c2c1 [Example 04.02, 3,3,3-trifluoro-1-{4-[(2-{[6-(3-methoxypyridin-4-yl)-1H-benzimidazol-2-yl]amino}pyridin-4-yl)methyl]piperazin-1-yl}propan-1-one]",16.4
6,"COc1cnccc1-c1ccc2nc(Nc3cc(CN4CCN(C(=O)C5CC5)CC4)ccn3)[nH]c2c1 [Example 04.03, cyclopropyl{4-[(2-{[6-(3-methoxypyridin-4-yl)-1H-benzimidazol-2-yl]amino}pyridin-4-yl)methyl]piperazin-1-yl}methanone]",19.3
7,"COc1cnccc1-c1ccc2nc(Nc3cc(CN4CCN(C(=O)C5CCC5)CC4)ccn3)[nH]c2c1 [Example 04.04, cyclobutyl{4-[(2-{[6-(3-methoxypyridin-4-yl)-1H-benzimidazol-2-yl]amino}pyridin-4-yl)methyl]piperazin-1-yl}methanone]",22.4
8,"COc1cnccc1-c1ccc2nc(Nc3cc(CN4CCN(C(=O)CC5CC5)CC4)ccn3)[nH]c2c1 [Example 04.05, 2-cyclopropyl-1-{4-[(2-{[6-(3-methoxypyridin-4-yl)-1H-benzimidazol-2-yl]amino}pyridin-4-yl)methyl]piperazin-1-yl}ethanone]",25.3
9,"COc1cnccc1-c1ccc2nc(Nc3cc(CN4CCN(C(=O)C(C)(C)C)CC4)ccn3)[nH]c2c1 [Example 04.06, 1-{4-[(2-{[6-(3-methoxypyridin-4-yl)-1H-benzimidazol-2-yl]amino}pyridin-4-yl)methyl]piperazin-1-yl}-2,2-dimethylpropan-1-one]",30.2
10,"COc1cnccc1-c1ccc2nc(Nc3cc(CN4CCN(C(=O)C5(C(F)(F)F)CC5)CC4)ccn3)[nH]c2c1 [Example 04.07, {4-[(2-{[6-(3-methoxypyridin-4-yl)-1H-benzimidazol-2-yl]amino}pyridin-4-yl)methyl]piperazin-1-yl}[1-(trifluoromethyl)cyclopropyl]methanone]",10
11,"COc1cnccc1-c1ccc2nc(Nc3cc(CN4CCN(C(=O)C(C)(C)O)CC4)ccn3)[nH]c2c1 [Example 04.09, 2-hydroxy-1-{4-[(2-{[6-(3-methoxypyridin-4-yl)-1H-benzimidazol-2-yl]amino}pyridin-4-yl)methyl]piperazin-1-yl}-2-methylpropan-1-one]",28.5
12,"COc1cnccc1-c1ccc2nc(Nc3cc(CN4CCN(C(=O)C(C)(C)OC)CC4)ccn3)[nH]c2c1 [Example 04.10, 2-methoxy-1-{4-[(2-{[6-(3-methoxypyridin-4-yl)-1H-benzimidazol-2-yl]amino}pyridin-4-yl)methyl]piperazin-1-yl}-2-methylpropan-1-one]",28.3

# Second part, the compound after the results:
row,IC50 [nM],Compound
1,52.2,"O=C(CC(F)(F)F)N1CCN(Cc2ccnc(Nc3nc4ccc(-c5ccncc5OCC(F)(F)F)cc4[nH]3)c2)CC1 [Example 05.01, 3,3,3-trifluoro-1-(4-{[2-({6-[3-(2,2,2-trifluoroethoxy)pyridin-4-yl]-1H-benzimidazol-2-yl}amino)pyridin-4-yl]methyl}piperazin-1-yl)propan-1-one]"
2,4.31,"CC(C)Oc1cnccc1-c1ccc2nc(Nc3cc(CN4CCN(C(=O)CC(F)(F)F)CC4)ccn3)[nH]c2c1 [Example 06.01, 3,3,3-trifluoro-1-(4-{[2-({6-[3-(propan-2-yloxy)pyridin-4-yl]-1H-benzimidazol-2-yl}amino)pyridin-4-yl]methyl}piperazin-1-yl)propan-1-one]"
3,7.12,"CC(C)Oc1cnccc1-c1ccc2nc(Nc3cc(CN4CCN(C(=O)C5CC5)CC4)ccn3)[nH]c2c1 [Example 06.02, cyclopropyl(4-{[2-({6-[3-(propan-2-yloxy)pyridin-4-yl]-1H-benzimidazol-2-yl}amino)pyridin-4-yl]methyl}piperazin-1-yl)methanone]"
4,8.26,"CC(C)Oc1cnccc1-c1ccc2nc(Nc3cc(CN4CCN(C(=O)CC5CC5)CC4)ccn3)[nH]c2c1 [Example 06.03, 2-cyclopropyl-1-(4-{[2-({6-[3-(propan-2-yloxy)pyridin-4-yl]-1H-benzimidazol-2-yl}amino)pyridin-4-yl]methyl}piperazin-1-yl)ethanone]"
5,224,"COc1cnc(C)cc1-c1ccc2nc(Nc3cc(CN4CCN(C(=O)C5CC5)CC4)ccn3)[nH]c2c1 [Example 07.01, cyclopropyl{4-[(2-{[6-(5-methoxy-2-methylpyridin-4-yl)-1H-benzimidazol-2-yl]amino}pyridin-4-yl)methyl]piperazin-1-yl}methanone]"
6,277,"COc1cnc(C)cc1-c1ccc2nc(Nc3cc(CN4CCN(C(=O)CC(F)(F)F)CC4)ccn3)[nH]c2c1 [Example 07.02, 3,3,3-trifluoro-1-{4-[(2-{[6-(5-methoxy-2-methylpyridin-4-yl)-1H-benzimidazol-2-yl]amino}pyridin-4-yl)methyl]piperazin-1-yl}propan-1-one]"
7,384,"COc1cnc(C)cc1-c1ccc2nc(Nc3cc(CN4CCN(C(=O)C5CCC5)CC4)ccn3)[nH]c2c1 [Example 07.03, cyclobutyl{4-[(2-{[6-(5-methoxy-2-methylpyridin-4-yl)-1H-benzimidazol-2-yl]amino}pyridin-4-yl)methyl]piperazin-1-yl}methanone]"
8,444,"COc1cnc(C)cc1-c1ccc2nc(Nc3cc(CN4CCN(C(=O)CC5CC5)CC4)ccn3)[nH]c2c1 [Example 07.04, 2-cyclopropyl-1-{4-[(2-{[6-(5-methoxy-2-methylpyridin-4-yl)-1H-benzimidazol-2-yl]amino}pyridin-4-yl)methyl]piperazin-1-yl}ethanone]"
9,624,"COc1cnc(C(=O)N(C)C)cc1-c1ccc2nc(Nc3cc(CN4CCN(C(=O)C5CC5)CC4)ccn3)[nH]c2c1 [Example 08.01, 4-{2-[(4-{[4-(cyclopropylcarbonyl)piperazin-1-yl]methyl}pyridin-2-yl)amino]-1H-benzimidazol-6-yl}-5-methoxy-N,N-dimethylpyridine-2-carboxamide]"
